Values after ≈ are worked out from the molar mass of the structure shown. Values joined by “and” are separate entries in the source; they are usually repeats but may differ in a detail not shown here. Equal values may be shown once. Residues, ends and D or L forms follow the SMILES beside them.
Experiments:
[1] = system: S. aureus ATCC 43300; test: MIC/MBC broth microdilution, S. aureus; type: cell-based, Staphylococcus aureus; settings: S. aureus
[2] = system: fibroblasts (46BR.1N); test: LDH cytotoxicity test, fibroblasts; type: cell-based; settings: for cytotoxicity (LDH), in words / concentration at which cytotoxic effect starts: 48 h; for cytotoxicity (LDH), in words: 50-150 μg/mL; for concentration at which cytotoxic effect starts: LDH
In short: (§1)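 Cytotoxicity as LDH release after 48 h serum-free treatment (50, 100, 150 μg/mL peptidomimetics) of 46BR.1N fibroblasts or HaCaT keratinocytes seeded at 5000 per well. Absorbance 450 nm; untreated set as 0% and Triton X-100 1% as maximal release; Mann–Whitney U test, p ≤ 0.05.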

[3] = system: immortalized human keratinocytes (HaCaT); test: LDH cytotoxicity test, keratinocytes; type: cell-based; settings: for cytotoxicity (LDH), in words / concentration at which cytotoxic effect starts: 48 h; for cytotoxicity (LDH), in words: 50-150 μg/mL; for concentration at which cytotoxic effect starts: LDH
In short: as §1

[4] = system: human dermal fibroblast cell line (46BR.1N); test: XTT cell proliferation assay, fibroblasts; type: cell-based; settings: for effect on proliferation, in words: 48 and 72 h, 0.01–150 μg/mL
In short: (§2)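 Proliferation was read as XTT absorbance at 490 nm after 4 h of reagent incubation, following 48 or 72 h of peptide exposure in serum-free HG-DMEM (37 °C, 5% CO2). The 72 h arm included a half-medium change with second peptide dose at 48 h. Significance by Mann–Whitney U, p ≤ 0.05.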

[5] = system: E. coli ATCC 25922; test: MIC/MBC broth microdilution, E. coli; type: cell-based, Escherichia coli
In short: (§3)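 BHI broth microdilution (NCCLS); ~10^5 CFU/mL; 37 °C, 18 h. MIC = lowest conc., no visible growth (≥90% vs untreated). MBC = ≤3 colonies, ≥99.9% kill. Water/DMSO/EtOH solvent controls; technical triplicate ×3 biological repeats.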

[6] = system: S. mutans c.i.; test: MIC/MBC broth microdilution, S. mutans; type: cell-based, Streptococcus mutans
In short: as §3

[7] = Hydrophobicity by reverse-phase chromatography; type: physicochemical; settings: acetonitrile content in the mobile phase at the retention time
In short: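 Hydrophobicity value is the acetonitrile content (%) of the eluent when the compound elutes from a reverse-phase column.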

[8] = system: K. pneumoniae ATCC 700603; test: MIC/MBC broth microdilution, K. pneumoniae; type: cell-based
In short: as §3

[9] = system: immortalized human HaCaT keratinocytes; test: XTT cell proliferation assay, keratinocytes; type: cell-based; settings: for effect on proliferation, in words: 48 and 72 h, 0.01–150 μg/mL
In short: as §2

[10] = system: S. schleiferi c.i.; test: MIC/MBC broth microdilution, S. schleiferi; type: cell-based, Staphylococcus schleiferi
In short: as §3

[11] = up to 150 μg/mL, A-193 and A-179 after 48 h
[12] = A-196 0.01–10 μg/mL, A-219 above 0.1 μg/mL, A-213 lower concentrations
[13] = 48 h, 50, 100 and 150 μg/mL, vs 1% Triton X-100

| SMILES | MBC ([1]; H2O) [µg/mL] | MIC ([1]; H2O) [µg/mL] | MIC ([1]; water additive DMSO) [µg/mL] | MBC ([1]; water additive EtOH) [µg/mL] | MIC ([1]; water additive EtOH) [µg/mL] | cytotoxicity (LDH), in words [2] | cytotoxicity (LDH), in words [3] | effect on proliferation, in words ([4]; XTT) | MIC ([5]; H2O) [µg/mL] | MIC ([5]; water additive DMSO) [µg/mL] | MIC ([5]; water additive EtOH) [µg/mL] | MIC ([6]; water additive DMSO) [µg/mL] | MIC ([6]; water additive EtOH) [µg/mL] | % AcCN (acetonitrile required for elution from the column) [7] | MIC ([8]; H2O) [µg/mL] | MIC ([8]; water additive DMSO) [µg/mL] | MIC ([8]; water additive EtOH) [µg/mL] | MIC ([10]; H2O) [µg/mL] | MIC ([10]; water additive DMSO) [µg/mL] | MIC ([10]; water additive EtOH) [µg/mL] | other results |
| --- | --- | --- | --- | --- | --- | --- | --- | --- | --- | --- | --- | --- | --- | --- | --- | --- | --- | --- | --- | --- | --- |
| CC(C)[C@@H](CNC(=O)C(=Cc1ccccc1)c1ccccc1)NC(=O)[C@H](CCCNC(=N)N)NC(=O)[C@H](CCCCNC(=N)N)NC(=O)OCc1ccccc1 [Compound A-192] | 4 (≈ 5.2 µM) | 4 (≈ 5.2 µM) | 16 (≈ 20.8 µM) | 16 (≈ 20.8 µM) | 16 (≈ 20.8 µM) | much lower | high cytotoxicity toward keratinocytes | negative impact | > 512 | 256 (≈ 333 µM) | > 512 | > 512 | > 512 | 44.8–49.8% and 48.7% | > 512 | > 512 | > 512 | 256 (≈ 333 µM) | 256 (≈ 333 µM) | 256 (≈ 333 µM) | MBC ([1]; water additive DMSO): 16 µg/mL (≈ 20.8 µM); proliferation relative to control at 100 and 150 μg/mL ([4]; XTT): 25%; proliferation relative to control at 50 μg/mL ([4]; XTT, 50 μg/mL): 50%; MBC ([5]; water additive DMSO): 512 µg/mL (≈ 666 µM); MIC ([6]; H2O): > 512 µg/mL; proliferation relative to control at 100 and 150 μg/mL ([9]; XTT): 25%; proliferation relative to control at 50 μg/mL ([9]; XTT, 50 μg/mL): 50%; effect on proliferation, in words ([9]; XTT): negative impact; MBC ([10]; H2O): 256 µg/mL (≈ 333 µM); MBC ([10]; water additive DMSO): 256 µg/mL (≈ 333 µM); MBC ([10]; water additive EtOH): 256 µg/mL (≈ 333 µM) |
| CC(C)[C@@H](CNC(=O)C(=Cc1ccccc1)c1ccccc1)NC(=O)[C@H](Cc1c[nH]cn1)NC(=O)[C@H](CCCCNC(=N)N)NC(=O)OCc1ccccc1 [Compound A-193] | 32 (≈ 42.7 µM) | 32 (≈ 42.7 µM) | 32 (≈ 42.7 µM) | 32 (≈ 42.7 µM) | 32 (≈ 42.7 µM) | cytotoxic only at a concentration of 150 μg/mL | cytotoxic only at a concentration of 150 μg/mL |  | 256 (≈ 341 µM) | > 512 | 256 (≈ 341 µM) | 8 (≈ 10.7 µM) | 8 (≈ 10.7 µM) | 49.0% and 44.8–49.8% | > 512 | > 512 | > 512 | 8 (≈ 10.7 µM) | 4 (≈ 5.33 µM) | 8 (≈ 10.7 µM) | MBC ([1]; water additive DMSO): 32 µg/mL (≈ 42.7 µM); concentration at which cytotoxic effect starts [2]: 150 µg/mL; concentration at which cytotoxic effect starts [3]: 150 µg/mL; antiproliferative effect (decrease vs control) [4, 11]: over 50%; MBC ([5]; H2O): 256 µg/mL (≈ 341 µM); MBC ([5]; water additive EtOH): 512 µg/mL (≈ 683 µM); MBC ([6]; water additive DMSO): 16 µg/mL (≈ 21.3 µM); MBC ([6]; water additive EtOH): 16 µg/mL (≈ 21.3 µM); antiproliferative effect (decrease vs control) [9, 11]: over 50%; MBC ([10]; H2O): 32 µg/mL (≈ 42.7 µM); MBC ([10]; water additive DMSO): 8 µg/mL (≈ 10.7 µM); MBC ([10]; water additive EtOH): 32 µg/mL (≈ 42.7 µM) |
| CC(C)[C@H](NC(=O)[C@H](Cc1c[nH]cn1)NC(=O)[C@H](CCCNC(=N)N)NC(=O)OCc1ccccc1)C(=O)NCCc1ccccc1 [Compound A-219] (HELM PEPTIDE1{[O=C(OCc1ccccc1)[*:2]].R.H.V.[c1ccc(CCN[*:1])cc1]}$$$$V2.0) |  | > 512 | > 512 |  | > 512 | slight cytotoxicity | no adverse effects | best pro-proliferative effect | > 512 | > 512 | > 512 | > 512 | > 512 | 42.6% | > 512 | > 512 | > 512 | > 512 | > 512 | > 512 | pro-proliferative effect above control [4, 12]: around 20%; MIC ([6]; H2O): > 512 µg/mL; pro-proliferative effect above control [9, 12]: around 20%; effect on proliferation, in words ([9]; XTT): best pro-proliferative effect |
| CC(C)[C@H](NC(=O)[C@H](Cc1c[nH]cn1)NC(=O)[C@H](CCCCN)NC(=O)OCc1ccccc1)C(=O)NCCc1ccccc1 [Compound A-220] (HELM PEPTIDE1{[O=C(OCc1ccccc1)[*:2]].K.H.V.[c1ccc(CCN[*:1])cc1]}$$$$V2.0) | 512 (≈ 826 µM) | 512 (≈ 826 µM) | 512 (≈ 826 µM) | 512 (≈ 826 µM) | 512 (≈ 826 µM) |  |  | did not exert any negative impact | 512 (≈ 826 µM) | > 512 | 512 (≈ 826 µM) | > 512 | > 512 | 42.4% | > 512 | > 512 | > 512 | > 512 | > 512 | > 512 | MBC ([1]; water additive DMSO): 512 µg/mL (≈ 826 µM); cytotoxicity (LDH) [2, 13]: 10–15% and 10%; concentration at which cytotoxic effect starts [2]: > 150 µg/mL; cytotoxicity (LDH) [3, 13]: 10–15% and 10%; concentration at which cytotoxic effect starts [3]: > 150 µg/mL; MBC ([5]; H2O): 512 µg/mL (≈ 826 µM); MBC ([5]; water additive EtOH): 512 µg/mL (≈ 826 µM); MBC ([6]; H2O): 512 µg/mL (≈ 826 µM); MIC ([6]; H2O): 256 µg/mL (≈ 413 µM); effect on proliferation, in words ([9]; XTT): did not exert any negative impact |
| CC(C)[C@H](NC(=O)[C@H](CCCNC(=N)N)NC(=O)[C@H](CCCNC(=N)N)NC(=O)OCc1ccccc1)C(=O)NCCc1ccccc1 [Compound A-221] (HELM PEPTIDE1{[O=C(OCc1ccccc1)[*:2]].R.R.V.[c1ccc(CCN[*:1])cc1]}$$$$V2.0) | 512 (≈ 768 µM) | 512 (≈ 768 µM) | > 512 | 512 (≈ 768 µM) | 256 (≈ 384 µM) | slight cytotoxicity | no adverse effects | pro-proliferating effect at lower concentrations followed by an antiproliferative effect at higher concentrations | > 512 | > 512 | > 512 | > 512 | > 512 | 43.9% | > 512 | > 512 | > 512 | > 512 | > 512 | > 512 | MIC ([6]; H2O): > 512 µg/mL; effect on proliferation, in words ([9]; XTT): pro-proliferating effect at lower concentrations followed by an antiproliferative effect at higher concentrations |
